This series in a line: HILIC, Waters ACQUITY UPLC BEH Amide, 100 × 2.1 mm, 1.7 µm; A: water + 0.125% formic acid + 10 mM ammonium formate; B: 5% water + 95% acetonitrile + 0.125% formic acid + 10 mM ammonium formate; gradient (min/%B) 0/100 2/100 7.7/70 9.5/40 10.25/30 12.75/100 17/100. The note with it: stereoisomer not certain.
On to `O=C1Nc2ccc(Cl)cc2C(C#CC2CC2)(C(F)(F)F)O1` (configuration not stated) [Efavirenz], for which the LC retention time is 0.98 min. The same measure for `CC(NC(CCc1ccccc1)C(=O)O)C(=O)N1CCCC1C(=O)O` (configuration not stated) [Enalaprilat]: 7.07 min; for `CCN1CCN(c2cc3c(cc2F)c(=O)c(C(=O)O)cn3C2CC2)CC1` [Enrofloxacin]: 3.31 min; for `Oc1cc(O)c2c(c1)OC(c1cc(O)c(O)c(O)c1)C(O)C2` (configuration not stated) [Epigallocatechin]: 10.2 min.

As for `Oc1ccc(C2COc3cc(O)ccc3C2)cc1` (configuration not stated) [Equol], the LC retention time stood at 1.19 min. The figure for `CC(C)C(C)C=CC(C)C1CCC2C3=CC=C4CC(O)CCC4(C)C3CCC21C` (configuration not stated) [Ergosterol] is 1.43 min. The same measure for `C[N+](C)(C)C(Cc1c[nH]c(=S)[nH]1)C(=O)[O-]` (configuration not stated) [Ergothioneine]: 7.74 min; for `CCCCCCCCC=CCCCCCCCCCCCC(N)=O` [Erucamide]: 1.06 min. Consider `COC(=O)CCc1ccc(OCC(O)CNC(C)C)cc1` (configuration not stated) [Esmolol], for which the LC retention time came to 3.13 min. As to `COc1ccc2nc(S(=O)Cc3ncc(C)c(OC)c3C)[nH]c2c1` (configuration not stated) [Esomeprazole], the LC retention time stood at 1.35 min. For `NCCO` [Ethanolamine], the LC retention time is 7.15 min. The figure for `CCCC(=O)OCC` [Ethylbutanoate] is 4.88 min; for `C#CC1(O)CCC2C3CCc4cc(O)ccc4C3CCC21C` (configuration not stated) [Ethynylestradiol] it is 0.99 min; for `CCOC(=O)c1cncn1C(C)c1ccccc1` (configuration not stated) [Etomidate] it is 0.98 min.

Consider `COc1cc(C2c3cc4c(cc3C(OC3OC5COC(C)OC5C(O)C3O)C3COC(=O)C23)OCO4)cc(OC)c1O` (configuration not stated) [Etoposide], for which the LC retention time worked out at 1.3 min. The same measure for `C=C1CC2C(CCC3(C)C(=O)CCC23)C2(C)C=CC(=O)C=C12` (configuration not stated) [Exemestane]: 0.98 min; for `O=C1C(CCC(O)c2ccc(F)cc2)C(c2ccc(O)cc2)N1c1ccc(F)cc1` (configuration not stated) [Ezetimibe]: 1.03 min; for `CC(=O)OCC(CCn1cnc2cnc(N)nc21)COC(C)=O` [Famciclovir]: 1.38 min.

Take `NC(N)=Nc1nc(CSCCC(N)=NS(N)(=O)=O)cs1` [Famotidine]: the LC retention time was determined as 5.59 min. The same measure for `NC(=O)OCC(COC(N)=O)c1ccccc1` [Felbamate]: 1.2 min; for `CCNC(C)Cc1cccc(C(F)(F)F)c1` (configuration not stated) [Fenfluramine]: 2.33 min. The figure for `Oc1ccc(C2CNCCc3c2cc(O)c(O)c3Cl)cc1` (configuration not stated) [Fenoldopam] is 5.68 min. The figure for `CCOC(=O)C(C)Oc1ccc(Oc2nc3ccc(Cl)cc3o2)cc1` (configuration not stated) [Fenoxaprop-P-ethyl] is 1.01 min. Consider `COc1cc(/C=C/C(=O)O)ccc1O` [Ferulic acid], for which the LC retention time turned out to be 1.36 min. The same measure for `CC(C)(C)NC(=O)C1CCC2C3CCC4NC(=O)C=CC4(C)C3CCC12C` (configuration not stated) [Finasteride]: 1.17 min; for `COC(=O)Nc1nc2ccc(C(=O)c3ccc(F)cc3)cc2[nH]1` [Flubendazole]: 1.16 min. The same measure for `CCOC(=O)c1ncn2c1CN(C)C(=O)c1cc(F)ccc1-2` [Flumazenil]: 1.08 min; for `CN1C(=O)CN=C(c2ccccc2F)c2cc([N+](=O)[O-])ccc21` [Flunitrazepam]: 1.05 min; for `c1ccc2c(c1)Cc1ccccc1-2` [Fluorene]: 6.66 min. The same measure for `CN1CCN(C2=Nc3cc(F)ccc3Cc3ccccc32)CC1` [Fluperlapine]: 2.3 min; for `OCCN1CCN(CCCN2c3ccccc3Sc3ccc(C(F)(F)F)cc32)CC1` [Fluphenazine]: 2.74 min.

For the compound `CCN(CC)CCN1C(=O)CN=C(c2ccccc2F)c2cc(Cl)ccc21` [Flurazepam], the LC retention time was determined as 2.41 min.
